The results in this text go back to patent US12522596B2, “Compounds as GLP-1R agonists” (Terns Pharmaceuticals, Inc., priority 2021, dated 2026).

“Also recorded” adds a separate entry of the source.

Data set [1] has as its system C57BL/6 mice expressing human GLP-1R (hGLP-1R). In words: Intraperitoneal glucose tolerance test (IPGTT) in hGLP-1R mice. In kind it is in vivo, mouse. The settings on record: IP glucose bolus, relative to vehicle control. On the procedure: The ability of compounds disclosed herein to modify the glucose tolerance of C57BL/6 mice expressing human GLP-1R (hGLP-1R), was evaluated.
The group design used in this study is described in Table 8.
Acclimation and grouping: Following a one-week washout period after in-life completion of the food intake study, mice were utilized to conduct an intraperitoneal Glucose Tolerance Test (IPGTT); mice remained in their treatment groups from study the food intake study. Baseline fasting glucose levels were used to balance treatment groups (final n=7 per treatment group); outlier mice (n=3), based on abnormal fasting blood glucose and body weight, were used for PK assessment.
Intraperitoneal Glucose Tolerance Test (IPGTT): The mice were placed clean cages with sawdust bedding and fasted overnight. Basal fasting glucose was measured by tail vein nick before dosing in the morning, 3 mice per group of abnormal fasting blood glucose and body weight were used for PK assessment. […] Blood glucose levels were measured at 0 (pre-dose), 15-, 30-, 60-, and 120-min post glucose dosing. […]
Data Processing and analysis: Manual data were transferred into an excel spreadsheet. All values are expressed as mean±S.E.M. The significances of the differences among groups and within groups were evaluated by one-way or two-way ANOVA using Graph Pad statistic software. […]

Data set [2] concerns mice expressing wildtype (WT) mouse GLP-1R. The data set can be described thus: Glucose tolerance in mice expressing wildtype mouse GLP-1R. In kind it is in vivo. The settings on record: mice expressing WT mouse GLP-1R. On the procedure:
The glucose tolerance of mice expressing wildtype (WT) mouse GLP-1R was also evaluated after the administration of compound 2 using methods analogous to those described above. The glucose tolerance of mice expressing WT mouse GLP-1R was not affected by Compound 2, whereas the glucose tolerance of mice expressing human GLP-1R was improved by Compound 2 (FIGS. 9 and 10).

In data set [3] the test system is human hepatocytes. In words: Metabolic stability in human hepatocytes. In kind it is in vitro ADME. The settings on record: human. The essentials: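 Compounds at 1 μM (0.1% DMSO) were incubated with 1×10^6 cells/mL cryopreserved rat or human hepatocytes in DMEM at 37°C for 0–240 min. Parent remaining was measured by LC-MS/MS; k from semi-log decline gave t1/2 and CLint, with CLhep predicted by the well-stirred model.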

With `N#Cc1ccc(COc2cccc(C3CCN(Cc4nc5ccc(C(=O)O)cc5n4Cc4cncs4)CC3)n2)c(F)c1` [Compound 2], the figures for the glucose tolerance entry in data set [1] and in data set [2] were “significantly enhanced the glucose tolerance; also recorded: improved” and “not affected”, respectively.
On to `N#Cc1ccc(COc2cccc(N3CCN(Cc4nc5ccc(C(=O)O)cc5n4Cc4cncs4)CC3)n2)c(F)c1` [Compound 30], for which, in data set [3], the “CLint relative to reference” value is “no significant difference” and the “half-life relative to standard” value was “no significant difference”.
